According to article PMC7470982 (2020):

Columns and labels:
[1] = system: py39 (DNA, i motif) CAGCCCCGCTCCCGCCCCCTTCCTCCCGCGCCCGCCCCT; experiment: CD melting; settings: 100 mM KCl, potassium phosphate 60 mM; 1× BPES, pH 5.5; 1 μM DNA, 20 μM compound
[2] = system: py27 (C-MYC) (DNA, i motif) CCTTCCCCACCCTCCCCACCCTCCCCA; experiment: ITC; settings: 100 mM KCl, potassium phosphate 60 mM; 1× BPES (1 mM EDTA), pH 5.5, 25 °C; fitted to 1:1 model
[3] = system: Fpy27 (DNA, i motif) CCTTCCCCACCCTCCCCACCCTCCCCA; experiment: MST; settings: 100 mM KCl, potassium phosphate 60 mM; 1× BPES (1 mM EDTA), pH 5.5, 25 °C
[4] = system: FKRAST (DNA, i motif) GCCCGGCCCCCGCTCCTCCCCCGCCGGCCCGGCCCGGCCCCCTCCTTCTCCCCG; experiment: FRET melting; settings: 100 mM KCl, potassium phosphate 60 mM; 1× BPES, pH 5.5; 0.2 μM DNA, 4 μM compound
[5] = system: FC-KITT (DNA, i motif) CCCTCCTCCCAGCGCCCTCCCT; experiment: FRET melting; settings: 100 mM KCl, potassium phosphate 60 mM; 1× BPES, pH 5.5; 0.2 μM DNA, 4 μM compound
[6] = system: bio-VEGF (DNA, i motif) GACCCCGCCCCCGGCCCGCCCCGG; experiment: SPR; settings: 100 mM KCl; 20 mM MES, pH 5.5, 25 °C; immobilised DNA
[7] = system: py27 (C-MYC) (DNA, i motif) CCTTCCCCACCCTCCCCACCCTCCCCA; experiment: CD melting; settings: 100 mM KCl, potassium phosphate 60 mM; 1× BPES, pH 5.5; 1 μM DNA, 20 μM compound
[8] = system: Fpy39 (DNA, i motif) CAGCCCCGCTCCCGCCCCCTTCCTCCCGCGCCCGCCCCT; experiment: MST; settings: 100 mM KCl, potassium phosphate 60 mM; 1× BPES (1 mM EDTA), pH 5.5, 25 °C
[9] = system: VEGF (DNA, i motif) GACCCCGCCCCCGGCCCGCCCCGG; experiment: CD melting; settings: 100 mM KCl, potassium phosphate 60 mM; 1× BPES, pH 5.5; 1 μM DNA, 20 μM compound
[10] = system: GC duplex (py39+pu39) (DNA, duplex) CAGCCCCGCTCCCGCCCCCTTCCTCCCGCGCCCGCCCCT/AGGGGCGGGCGCGGGAGGAAGGGGGCGGGAGCGGGGCTG; experiment: TO fluorescent intercalator displacement; settings: 20 mM NaCl; 20 mM Tris-HCl, pH 7.4; 1 μM DNA, 1 μM thiazole orange displaced
[11] = system: bio-py39 (DNA, i motif) CAGCCCCGCTCCCGCCCCCTTCCTCCCGCGCCCGCCCCT; experiment: SPR; settings: 100 mM KCl; 20 mM MES, pH 5.5, 25 °C; immobilised DNA
[12] = system: pu39 (DNA, G4) AGGGGCGGGCGCGGGAGGAAGGGGGCGGGAGCGGGGCTG; experiment: TO fluorescent intercalator displacement; settings: K+ (100 mM KCl); 20 mM Tris-HCl pH 7.4; 1 μM DNA, 1 μM thiazole orange displaced
[13] = system: py39 (DNA, i motif) CAGCCCCGCTCCCGCCCCCTTCCTCCCGCGCCCGCCCCT; experiment: ITC; settings: 100 mM KCl, potassium phosphate 60 mM; 1× BPES (1 mM EDTA), pH 5.5, 25 °C; fitted to 1:1 model
[14] = system: C-KIT (DNA, i motif) CCCTCCTCCCAGCGCCCTCCCT; experiment: CD melting; settings: 100 mM KCl, potassium phosphate 60 mM; 1× BPES, pH 5.5; 1 μM DNA, 20 μM compound
[15] = system: bio-hairpin (DNA, hairpin, HEG (non-nucleotide) linker between nucleotides 10 and 11) TATAGCTATATATAGCTATA; experiment: SPR; settings: 100 mM KCl; 20 mM Tris-HCl, pH 7.4, 25 °C; immobilised DNA
[16] = system: hairpin (DNA, hairpin) CGCGCGCGTTTTCGCGCGCG; experiment: TO fluorescent intercalator displacement; settings: 1 μM DNA, 1 μM thiazole orange displaced
[17] = system: py39 (DNA, i motif) CAGCCCCGCTCCCGCCCCCTTCCTCCCGCGCCCGCCCCT; experiment: TO fluorescent intercalator displacement; settings: K+ (1x BPES: 100 mM KCl, potassium phosphate); 1x BPES pH 5.5; 1 μM DNA, 1 μM thiazole orange displaced
[18] = system: FVEGFT (DNA, i motif) GACCCCGCCCCCGGCCCGCCCCGG; experiment: FRET melting; settings: 100 mM KCl, potassium phosphate 60 mM; 1× BPES, pH 5.5; 0.2 μM DNA, 4 μM compound
[19] = system: KRAS (DNA, i motif) GCCCGGCCCCCGCTCCTCCCCCGCCGGCCCGGCCCGGCCCCCTCCTTCTCCCCG; experiment: CD melting; settings: 100 mM KCl, potassium phosphate 60 mM; 1× BPES, pH 5.5; 1 μM DNA, 20 μM compound
[20] = system: Fpy27T (F-C-MYC-T) (DNA, i motif) CCTTCCCCACCCTCCCCACCCTCCCCA; experiment: FRET melting; settings: 100 mM KCl, potassium phosphate 60 mM; 1× BPES, pH 5.5; 0.2 μM DNA, 4 μM compound
[21] = system: Fpy39T (DNA, i motif) CAGCCCCGCTCCCGCCCCCTTCCTCCCGCGCCCGCCCCT; experiment: FRET melting; settings: 100 mM KCl, potassium phosphate 60 mM; 1× BPES, pH 5.5; 0.2 μM DNA, 4 μM compound
[22] = system: bio-py27 (bio-C-MYC) (DNA, i motif) CCTTCCCCACCCTCCCCACCCTCCCCA; experiment: SPR; settings: 100 mM KCl; 20 mM MES, pH 5.5, 25 °C; immobilised DNA
[23] = system: bio-C-KIT (DNA, i motif) CCCTCCTCCCAGCGCCCTCCCT; experiment: SPR; settings: 100 mM KCl; 20 mM MES, pH 5.5, 25 °C; immobilised DNA

Cc1ccc2c(c1)c(=O)c1cc(C(=O)NCCCN3CCOCC3)ccc1n2-c1ccc(C(=O)NCCCN2CCOCC2)cc1
ΔTm [1]: 9.63 °C | KD [2]: 11.1 µM | KD [3]: 10.95 µM | ΔTm [4]: 1.17 °C | ΔTm [5]: -0.52 °C | KD [6]: 36.4 µM | ΔTm [7]: 4.26 °C | KD [8]: 4.69 µM | ΔTm [9]: 1.34 °C | relative TO displacement ratio [10]: 6% | KD [11]: 3.56 µM | relative replacement ratio [12]: 10% | KD [13]: 5.52 µM | ΔTm [14]: 0.20 °C | KD [15]: > 50 µM | relative TO displacement ratio [16]: 12% | relative TO displacement ratio [17]: 52% | ΔTm [18]: -0.64 °C | ΔTm [19]: 1.03 °C | ΔTm [20]: 3.50 °C | ΔTm [21]: 9.15 °C | KD [22]: 11.95 µM | KD [23]: 34.5 µM
